In patent US9359344B2, “Biaryl heterocycle substituted oxazolidinone antibacterial agents” (Xuanzhu Pharma Co., Ltd., priority 2011, dated 2016):

What was measured:
Enterococcus faecium = test: In vitro antibacterial activity, standard agar dilution method, Enterococcus faecium; type: cell-based; settings: clinical strains
Description: (§1) Strains for test: methicillin-resistant Staphylococcus aureus (MRSA), methicillin-sensitive Staphylococcus aureus (MSSA), methicillin-resistant Staphylococcus epidermidis (MRSE), methicillin-sensitive Staphylococcus […] (MSSE), Enterococcus faecium, Enterococcus faecalis, streptococcus pneumoniae. Obtained from: Qianfoshan Hospital, First People's Hospital of Yunnan Province, Renji Hospital of Shanghai, People's Hospital of Jilin Province, Southwest Hospital.
(§2) Compounds 1, 3, 4, 6, 8, 11 of the present invention, prepared according to the process in each of the examples.
(§3) Control pharmaceutical: linezolid.
(§4) standard agar dilution method, reference was made to National Committee for Clinical Laboratory Standards. 2006. Methods for Dilution Antimicrobial Susceptibility Tests for Bacteria That Grow Aerobically, Approved Standard—Seventh Edition M7-A7.

Enterococcus faecalis = test: In vitro antibacterial activity, standard agar dilution method, Enterococcus faecalis; type: cell-based; settings: clinical strains
Description: as §1, §2, §3, §4

streptococcus pneumoniae = test: In vitro antibacterial activity, standard agar dilution method, Streptococcus pneumoniae; type: cell-based; settings: clinical strains
Description: as §1, §2, §3, §4

[1] = system: methicillin-resistant Staphylococcus aureus (MRSA); test: In vitro antibacterial activity, standard agar dilution method, MRSA; type: cell-based; settings: clinical strains
Description: as §1, §2, §3, §4

[2] = system: methicillin-sensitive Staphylococcus aureus (MSSE); test: In vitro antibacterial activity, standard agar dilution method, MSSE; type: cell-based, Staphylococcus epidermidis; settings: clinical strains
Description: as §1, §2, §3, §4

[3] = system: methicillin-sensitive Staphylococcus aureus (MSSA); test: In vitro antibacterial activity, standard agar dilution method, MSSA; type: cell-based; settings: clinical strains
Description: as §1, §2, §3, §4

[4] = system: methicillin-resistant Staphylococcus epidermidis (MRSE); test: In vitro antibacterial activity, standard agar dilution method, MRSE; type: cell-based; settings: clinical strains
Description: as §1, §2, §3, §4

[5] = In vivo pharmacokinetics test on rat, P.O (lavage); settings: plasma, po, male SD rat, Compound 3 itself detected
Protocol: (§5) Compounds 2, 3, 5, 7, 9, prepared by the processes in the examples, dissolved in physiological saline.
(§6) Administration is performed as described in the table below, fasting without water deprivation for 16 hours before administration, providing food 4 hours after the administration.
P.O representing administration by lavage
(§7) I.V: blood collection was carried out according to the time points in the table below. At each time point about 100 μl whole blood was collected into a heparin sodium anticoagulation tube, centrifuged at 4° C. in a low temperature high speed centrifuge at 8000 rpm for 6 minutes. Plasma was separated and stored frozen in a freezer at −80° C.
(§8) Compound 5, 7, 9: 20 μl plasma was each taken and added into 100 μl of Torezolid (TR-700) solution in methanol at a concentration of 50 ng/ml, mixed under vortex for 5 minutes, centrifuged at 12000 rpm for 5 minutes; 100 μl of supernatant was taken and added into 100 μl water, mixed under vortex for 2 minutes, and analyzed by using LC-MS/MS.
(§9) Compound 2: 20 μl plasma was taken and added into 100 μl of Radezolid solution in methanol at a concentration of 50 ng/ml, mixed under vortex for 3 minutes, centrifuged at 12000 rpm for 5 minutes; 100 μl of supernatant was taken and added into 100 μl water, mixed under vortex for 2 minutes, and analyzed by using LC-MS/MS.
(§10) Compound 3: 20 μl plasma was taken and added into 800 μl of KBP-3957 methyl tert-butyl ether solution at a concentration of 10 ng/ml, mixed under vortex for 10 minutes, centrifuged at 12000 rpm for 5 minutes; 400 μl of supernatant was taken and added into a 96-well plate, purged to dryness by nitrogen, 200 μl of methanol:water (7:3) solution was added, mixed under vortex for 10 minutes, and analyzed by using LC-MS/MS.
(§11) Compound 2 is the prodrug of compound 1. Compound 5 is the prodrug of compound 4. Compound 7 is the prodrug of compound 6. Compound 9 is the prodrug of compound 8. Thus, PK data of active compounds, i.e. compounds 1, 4, 6, 8, were detected after administration, respectively.
Calculation Formula Absolute bioavailability F %=[AUC]INF(PO)*Dose(IV)/[AUC]INF(IV)*Dose(PO)

[6] = In vivo pharmacokinetics test on rat, I.V (intravenous push); settings: male SD rat, 0.75 mg/kg, plasma, Compound 3 itself detected
Protocol: as §5, §6
I.V representing administration by intravenous push
as §7, §8, §9, §10, §11

[7] = system: methicillin-sensitive (MSSE); test: In vitro antibacterial activity, standard agar dilution method, MSSE; type: cell-based, Staphylococcus epidermidis; settings: clinical strains
Description: as §1, §2, §3, §4

SMILES | antibacterial activity Enterococcus faecium (Enterococcus faecium) [µg/mL] | antibacterial activity Enterococcus faecalis (Enterococcus faecalis) [µg/mL] | antibacterial activity Streptococcus pneumoniae (streptococcus pneumoniae) [µg/mL] | antibacterial activity MRSA [1] [µg/mL] | antibacterial activity MSSE [2] [µg/mL] | antibacterial activity MSSA [3] [µg/mL] | antibacterial activity MRSE [4] [µg/mL] | bioavailability ([5]; P.O 1 mg/kg vs I.V 0.75 mg/kg, read-out: F % (absolute bioavailability)) [%] | AUC(0-inf) ([5]; P.O, 1 mg/kg) [ng·h/mL] | Cmax ([5]; P.O, 1 mg/kg) [ng/mL] | Tmax ([5]; P.O, 1 mg/kg) [h] | half-life ([5]; P.O, 1 mg/kg) [h] | AUC(0-inf) [6] [ng·h/mL] | clearance [6] [mL/min/kg] | half-life [6] [h] | Vd ([6]; read-out: Vss) [L/kg] | antibacterial activity MSSE [7] [µg/mL]
CN(c1ccc(-c2ccc(N3C[C@H](CO)OC3=O)cc2F)cn1)c1nnn(C)n1 [Compound 8, (R)-3-(3-fluoro-4-(6-(methyl(2-methyl-2H-tetrazol-5-yl)amino)pyridin-3-yl)phenyl)-5-(hydroxylmethyl)oxazolidin-2-one] | 1 | 1 | 0.5 | 1 | 0.5 | 1 | 0.5 | – | – | – | – | – | – | – | – | – | –
CN(c1ccc(-c2ccc(N3C[C@H](CO)OC3=O)cc2F)cn1)c1nnnn1C [Compound 6, (R)-3-(3-fluoro-4-(6-(methyl(1-methyl-1H-tetrazol-5-yl)amino)pyridin-3-yl)phenyl)-5-(hydroxylmethyl)oxazolidin-2-one] | 1 | 1 | 0.5 | 0.5 | 0.5 | 0.5 | 0.5 | – | – | – | – | – | – | – | – | – | –
Cn1nnnc1Nc1ccc(-c2ccc(N3C[C@H](CO)OC3=O)cc2F)cn1 [Compound 4, (R)-3-(3-fluoro-4-(6-((1-methyl-1H-tetrazol-5-yl)amino)pyridin-3-yl)phenyl)-5-(hydroxylmethyl)oxazolidin-2-one] | 0.25 | 0.25 | 1 | 0.25 | 0.125 | 0.25 | 0.125 | – | – | – | – | – | – | – | – | – | –
Cn1cc(Nc2ccc(-c3ccc(N4C[C@H](CO)OC4=O)cc3F)cn2)nn1 [Compound 11, (R)-3-(3-fluoro-4-(6-((1-methyl-1H-1,2,3-triazol-4-yl)amino)pyridin-3-yl)phenyl)-5-(hydroxylmethyl)oxazolidin-2-one] | 2 | 2 | 1 | 1 | 0.5 | 1 | 1 | – | – | – | – | – | – | – | – | – | –
Cn1nnc(Nc2ccc(-c3ccc(N4C[C@H](CO)OC4=O)cc3F)cn2)n1 [Compound 1, (R)-3-(3-fluoro-4-(6-((2-methyl-2H-tetrazol-5-yl)amino)pyridin-3-yl)phenyl)-5-(hydroxylmethyl)oxazolidin-2-one] | 1 | 1 | 0.5 | 1 | 0.5 | 1 | 0.5 | – | – | – | – | – | – | – | – | – | –
CC(=O)NC[C@H]1CN(c2ccc(-c3ccc(Nc4nnn(C)n4)nc3)c(F)c2)C(=O)O1 [Compound 3, (S)-N-((3-(3-fluoro-4-(6-((2-methyl-2H-tetrazol-5-yl)amino)pyridin-3-yl)phenyl)-2-oxooxazolidin-5-yl)methyl)acetamide] | 0.25 | 0.25 | 0.25 | 1 | – | 0.5 | 0.25 | 45.5 | 7030 | 614 | 4 | 5.55 | 11600 | 1.17 | 5.29 | 0.37 | 0.25
CC(=O)NC[C@H]1CN(c2ccc(N3CCOCC3)c(F)c2)C(=O)O1 [linezolid, Linezolid, reference compound] | 4 | 4 | 2 | 4 | 2 | 2 | 2 | – | – | – | – | – | – | – | – | – | –
